According to ChEMBL document CHEMBL1201862, “PubChem BioAssay data set” (2004):
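Five concentrations, 48 hours, 96-well plates. GI50 = concentration required for 50% inhibition of growth.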 Active and inactive are the calls of the source. No stated cut-off is given here; in the data, active = GI50 up to about 1.1 µM and inactive = higher.

Assays:
Assay in all cases: inhibition of tumour cell growth, NCI panel, 48 h
NCI-H460 = tested on: NCI-H460
MCF7 = tested on: MCF7
HOP-62 = tested on: HOP-62
KM12 = tested on: KM12
SR = tested on: SR
CCRF-CEM = tested on: CCRF-CEM
IGROV-1 = tested on: IGROV-1
LOX IMVI = tested on: LOX IMVI
SK-OV-3 = tested on: SK-OV-3
COLO 205 = tested on: COLO 205
ACHN = tested on: ACHN
MDA-N = tested on: MDA-N
SNB-75 = tested on: SNB-75
786-0 = tested on: 786-0
UACC-257 = tested on: UACC-257
MOLT-4 = tested on: MOLT-4
K562 = tested on: K562
UO-31 = tested on: UO-31
TK-10 = tested on: TK-10
UACC-62 = tested on: UACC-62

Measured: GI50

CN(N=O)c1nc2c(C(N)=O)ncn2s1
inactive: NCI-H460 52.1 µM | MCF7 86.7 µM | HOP-62 28.8 µM | KM12 > 100 µM | SR 48.9 µM | CCRF-CEM 45.4 µM | IGROV-1 63.1 µM | LOX IMVI 15.2 µM | SK-OV-3 48.6 µM | COLO 205 > 100 µM | ACHN 57.3 µM | MDA-N > 100 µM | SNB-75 49 µM | 786-0 85.1 µM | UACC-257 94.6 µM | MOLT-4 > 100 µM | K562 48.4 µM | UO-31 22.2 µM | TK-10 20 µM | UACC-62 32.7 µM

NC(CP(=O)(O)O)C(=O)O (stereo not given)
inactive: NCI-H460 > 100 µM | MCF7 > 100 µM | HOP-62 > 100 µM | KM12 > 100 µM | SR > 100 µM | CCRF-CEM > 100 µM | IGROV-1 > 100 µM | LOX IMVI 43.6 µM | SK-OV-3 > 100 µM | COLO 205 > 100 µM | ACHN > 100 µM | MDA-N > 100 µM | SNB-75 > 100 µM | 786-0 > 100 µM | UACC-257 > 100 µM | MOLT-4 > 100 µM | K562 > 100 µM | UO-31 > 100 µM | TK-10 > 100 µM | UACC-62 > 100 µM
